# Where a name gives a salt, the structure may show the parent alone.
# Columns and labels:
# [1] = tested on: imidazoline receptor I2; assay: radioligand binding to imidazoline receptor I2 ([3H] Idazoxan); set-up: species or system rat
# Experimental: Determination of investigated compounds' binding to imidazoline I2 receptor is carried out according to the method described in [Brown C M, MacKinnon A C, McGrath J C, Spedding M and Kilpatrick A T, a2-Adrenoceptor subtypes and imidazoline-like binding in the rat brain. Br J. Pharmacol. 99:803-809, 1990]. […] Idazoxan is used as positive control.
# [2] = molecular target: T1, recombinant human 5-HT2C receptor (Homo sapiens, UniProt P28335); assay: radioligand binding to serotonin receptor 5-HT2C ([3H] Mesulergine)
# T1 construct: expressed in transfected cells; host or cells: CHO-K1
# T1 sequence (P28335 33-458): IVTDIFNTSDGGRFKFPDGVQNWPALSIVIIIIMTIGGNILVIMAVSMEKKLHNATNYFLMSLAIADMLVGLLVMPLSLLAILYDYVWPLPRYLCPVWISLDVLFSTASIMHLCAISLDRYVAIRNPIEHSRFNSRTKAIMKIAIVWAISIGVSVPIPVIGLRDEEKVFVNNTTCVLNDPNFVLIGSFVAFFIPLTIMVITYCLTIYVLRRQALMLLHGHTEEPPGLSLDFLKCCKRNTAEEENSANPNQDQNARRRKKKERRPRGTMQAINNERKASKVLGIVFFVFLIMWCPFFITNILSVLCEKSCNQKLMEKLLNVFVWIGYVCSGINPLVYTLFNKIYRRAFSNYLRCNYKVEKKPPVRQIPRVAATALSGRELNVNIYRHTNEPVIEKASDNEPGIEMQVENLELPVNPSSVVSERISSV
# From the text: J. Neurochem. 69: 1449-1458, 1997]. […] SB242084 is used as positive control.
# [3] = molecular target: T2, recombinant human 5-HT1A (Homo sapiens, UniProt P08908); assay: radioligand binding to serotonin receptor 5-HT1A ([3H] 8-OH-DPAT); conditions: for inhibition at 1 µM: ligand concentration 1 μM
# T2 construct: expressed in transfected cells; host or cells: CHO
# T2 sequence (P08908 1-422): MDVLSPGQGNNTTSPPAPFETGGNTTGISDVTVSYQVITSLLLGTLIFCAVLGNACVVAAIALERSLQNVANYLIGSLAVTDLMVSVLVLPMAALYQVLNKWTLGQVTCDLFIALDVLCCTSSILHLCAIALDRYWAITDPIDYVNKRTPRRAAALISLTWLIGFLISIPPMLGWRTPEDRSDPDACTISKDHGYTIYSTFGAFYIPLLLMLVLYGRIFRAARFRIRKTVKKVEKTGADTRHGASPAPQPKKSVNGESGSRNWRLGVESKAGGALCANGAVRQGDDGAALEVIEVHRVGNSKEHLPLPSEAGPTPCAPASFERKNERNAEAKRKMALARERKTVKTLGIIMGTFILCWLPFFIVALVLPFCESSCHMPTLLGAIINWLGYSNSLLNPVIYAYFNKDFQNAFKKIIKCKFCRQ
# From the text: J Pharmacol Exp Ther. 306(1): 301-309, 2003]. […] Metergoline is used as positive control.
# [4] = molecular target: T3, recombinant human 5-HT2B receptor (Homo sapiens, UniProt P41595); assay: radioligand binding to serotonin receptor 5-HT2B ([3H] Lysergic acid diethylamide)
# T3 construct: expressed in transfected cells; host or cells: CHO-K1
# Experimental: Screening of the disclosed compounds for potential ability to interact with serotonin receptor 5-HT2A is carried out by method of radioligand binding. For this purpose membrane species are prepared from CHO-K1 cells comprising recombinant human 5-HT2B receptor by homogenization of recombinant cells in glass homogenizer with the subsequent separation of plasmatic membranes from cell nuclei, mitochondrias and cell wreckages by differential centrifugation. […] After incubation the samples are filtered in vacuo on glass-microfiber filters G/F (Millipor, USA), filters are washed three times with cold solution of medium and radioactivity is measured by scintillation counter MicroBeta 340 (Perkin Elmer, USA). […] Ketanserin is used as positive control. The tested compounds' binding to the receptor is determined by their ability to displace the radioligand and is expressed in percent of displacement (% I). Values of % I are calculated according to the following equation:
# wherein: TA—is the overall radioactivity in the presence of radioligand only, CA—is the radioactivity in the presence of radioligand and tested compound and NA—is the radioactivity in the presence of radioligand and Serotonin (10 μM).
# [5] = molecular target: T4, recombinant human 5-HT6 receptor (Homo sapiens, UniProt P50406); assay: radioligand binding to serotonin receptor 5-HT6 ([3H] Lysergic acid diethylamide); conditions: for inhibition at 1 µM: ligand concentration 1 μM, read-out: 5-HT6 % inhibition
# T4 construct: expressed in transfected cells; host or cells: HeLa
# From the text: Mol. Pharmacol. 43:320-327, 1993]. […] Methiothepin is used as positive control.
# [6] = molecular target: T5, human α2A receptor (Homo sapiens, UniProt P08913); assay: radioligand binding to adrenergic receptor α2A ([3H] MK-912); conditions: 10 μM ligand
# T5 construct: expressed in transfected cells; host or cells: Sf9
# T5 sequence (P08913 1-465): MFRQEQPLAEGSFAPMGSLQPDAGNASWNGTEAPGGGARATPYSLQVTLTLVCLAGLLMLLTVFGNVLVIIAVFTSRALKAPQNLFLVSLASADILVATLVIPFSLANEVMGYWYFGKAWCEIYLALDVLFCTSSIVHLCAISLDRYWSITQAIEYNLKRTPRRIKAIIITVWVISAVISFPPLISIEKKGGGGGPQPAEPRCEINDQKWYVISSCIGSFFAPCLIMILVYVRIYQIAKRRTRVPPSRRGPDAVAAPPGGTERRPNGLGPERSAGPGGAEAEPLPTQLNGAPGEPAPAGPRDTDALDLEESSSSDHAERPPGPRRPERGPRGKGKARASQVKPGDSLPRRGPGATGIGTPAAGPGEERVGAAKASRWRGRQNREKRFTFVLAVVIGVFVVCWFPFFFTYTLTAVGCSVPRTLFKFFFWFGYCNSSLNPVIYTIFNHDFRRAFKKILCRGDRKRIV
# From the text: J Pharmacol ExpTher. […] Yohimbine is used as positive control.
# [7] = molecular target: T6, human α1D receptor (Homo sapiens, UniProt P25100); assay: radioligand binding to adrenergic receptor α1D ([3H] Prazosin); conditions: 10 μM ligand
# T6 construct: expressed in transfected cells; host or cells: HEK-293
# T6 sequence (P25100 1-572): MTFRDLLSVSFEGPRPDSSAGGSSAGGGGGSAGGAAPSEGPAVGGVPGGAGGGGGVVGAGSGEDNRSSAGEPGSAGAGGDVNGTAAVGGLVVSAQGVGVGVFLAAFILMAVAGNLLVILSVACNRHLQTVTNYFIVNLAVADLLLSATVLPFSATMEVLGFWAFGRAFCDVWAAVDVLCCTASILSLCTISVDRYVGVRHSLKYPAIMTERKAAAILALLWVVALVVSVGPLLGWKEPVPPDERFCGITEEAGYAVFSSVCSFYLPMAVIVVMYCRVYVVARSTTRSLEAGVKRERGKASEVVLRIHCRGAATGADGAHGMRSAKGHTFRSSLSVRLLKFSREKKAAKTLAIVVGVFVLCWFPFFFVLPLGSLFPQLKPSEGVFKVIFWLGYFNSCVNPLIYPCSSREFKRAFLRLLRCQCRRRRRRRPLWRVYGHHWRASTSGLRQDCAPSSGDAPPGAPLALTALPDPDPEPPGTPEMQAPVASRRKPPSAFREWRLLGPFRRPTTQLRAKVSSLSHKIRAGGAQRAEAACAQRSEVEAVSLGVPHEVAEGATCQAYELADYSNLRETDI
# From the text: 6-C. […] For this purpose sDNA of human α1D receptor is expressed in HEK-293 cells, as it was described in [T L Theroux, T A Esbenshade, R D Peavy and K P Minneman. Coupling efficiencies of human alpha 1-adrenergic receptor subtypes: titration of receptor density and responsiveness with inducible and repressible expression vectors. Mol. Pharmacol.; 50: 1376-1387, 1996]. […] Prazosin is used as positive control.
# [8] = molecular target: T7, adrenergic receptor α1A (Rattus norvegicus, UniProt P43140); assay: radioligand binding to adrenergic receptor α1A ([3H] Prazosin); conditions: 10 μM ligand
# T7 construct: membrane species from rat submaxillary glands (rat of Wistar breed) are prepared; from tissue; host or cells: rat (Wistar) submaxillary gland membranes
# T7 sequence (P43140 1-466): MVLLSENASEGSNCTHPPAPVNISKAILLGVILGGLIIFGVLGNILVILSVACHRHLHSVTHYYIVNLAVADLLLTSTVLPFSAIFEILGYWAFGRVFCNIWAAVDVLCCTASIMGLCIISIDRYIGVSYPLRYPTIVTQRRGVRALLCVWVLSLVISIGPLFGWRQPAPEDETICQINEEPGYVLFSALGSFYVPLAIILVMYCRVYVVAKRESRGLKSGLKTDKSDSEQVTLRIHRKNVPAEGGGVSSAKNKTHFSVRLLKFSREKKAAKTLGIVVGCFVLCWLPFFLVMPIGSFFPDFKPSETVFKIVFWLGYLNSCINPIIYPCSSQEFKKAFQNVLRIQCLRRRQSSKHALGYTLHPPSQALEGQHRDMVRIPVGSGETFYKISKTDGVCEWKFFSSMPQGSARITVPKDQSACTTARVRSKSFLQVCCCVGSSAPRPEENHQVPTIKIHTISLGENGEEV
# Experimental: Determination of investigated compounds' binding to α1A receptor was carried out according to the method described in [Michel A D, Loury D N and Whiting R l. Identification of a single α1A-adrenoceptor corresponding to the α1A-subtype in rat submaxillary gland. Br J. Pharmacol. 98:883-889, 1989]. […] Prazosin is used as positive control.
# [9] = molecular target: T8, adrenergic receptor α1B (Rattus norvegicus, UniProt P15823); assay: radioligand binding to adrenergic receptor α1B ([3H] Prazosin); conditions: 10 μM ligand
# T8 construct: membrane species from rat liver (rat of Wistar breed) are prepared; from tissue; host or cells: rat (Wistar) liver membranes
# T8 sequence (P15823 1-515): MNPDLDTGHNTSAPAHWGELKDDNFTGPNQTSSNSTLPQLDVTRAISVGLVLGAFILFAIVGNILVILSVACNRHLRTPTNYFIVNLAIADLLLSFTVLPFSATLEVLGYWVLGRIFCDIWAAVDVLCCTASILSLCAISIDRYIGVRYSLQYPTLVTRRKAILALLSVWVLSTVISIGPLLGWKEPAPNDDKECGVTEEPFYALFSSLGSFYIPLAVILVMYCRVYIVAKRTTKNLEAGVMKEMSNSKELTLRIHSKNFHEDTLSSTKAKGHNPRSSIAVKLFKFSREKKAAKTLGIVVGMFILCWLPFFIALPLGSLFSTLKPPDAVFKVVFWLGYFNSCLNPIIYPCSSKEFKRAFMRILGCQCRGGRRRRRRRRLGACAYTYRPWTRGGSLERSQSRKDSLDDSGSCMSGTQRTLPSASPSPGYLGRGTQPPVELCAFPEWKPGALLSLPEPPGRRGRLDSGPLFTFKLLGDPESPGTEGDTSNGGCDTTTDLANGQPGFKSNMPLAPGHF
# From the text: Species heterogeneity of hepatic α1A-, α1B-, and α1C-subtypes. Biochem Biophys Res Commun. 186:760-7676 1992]. […] Prazosin is used as positive control.
# [10] = molecular target: T9, recombinant human 5-HT2A receptor (Homo sapiens, UniProt P28223); assay: radioligand binding to serotonin receptor 5-HT2A ([3H] Ketanserin)
# T9 construct: expressed in transfected cells; host or cells: CHO-K1
# Experimental: 9-C. […] J. Neurochem. […] Ketanserin is used as positive control. […] Values of % I is calculated according to the following equation: […]
# [11] = molecular target: T10, human 5-HT7 receptor (Homo sapiens, UniProt P34969); assay: radioligand binding to serotonin receptor 5-HT7 ([3H] Lysergic acid diethylamide)
# T10 construct: expressed in transfected cells; host or cells: CHO
# From the text: For this purpose sDNA of human 5-HT7 receptor is expressed in CHO cells as it was described in [Shen Y, Monsma F J Jr, Metcalf M A, Jose P A, Hamblin M W, and Sibley DR. […] J. Biol. Chem. 1993, 268, 18200-18204]. […] J. Pharmacol. Exp. Ther. 1994, 268:1403-1410]. […] Methiothepin is used as positive control.
# [12] = molecular target: T11, human H1 receptor (Homo sapiens, UniProt P35367); assay: radioligand binding to histamine receptor H1 ([3H] Pyrilamine); conditions: 10 μM ligand
# T11 construct: expressed in transfected cells; host or cells: CHO-K1
# From the text: Biochem Biophys Res Comm. 197(3): 1601-1608, 1993]. […] Biochem Biophys Res Comm. 197(3): 1601-1608, 1993].
# Pyrilamine is used as positive control.
# T4 sequence (P50406 whole entry): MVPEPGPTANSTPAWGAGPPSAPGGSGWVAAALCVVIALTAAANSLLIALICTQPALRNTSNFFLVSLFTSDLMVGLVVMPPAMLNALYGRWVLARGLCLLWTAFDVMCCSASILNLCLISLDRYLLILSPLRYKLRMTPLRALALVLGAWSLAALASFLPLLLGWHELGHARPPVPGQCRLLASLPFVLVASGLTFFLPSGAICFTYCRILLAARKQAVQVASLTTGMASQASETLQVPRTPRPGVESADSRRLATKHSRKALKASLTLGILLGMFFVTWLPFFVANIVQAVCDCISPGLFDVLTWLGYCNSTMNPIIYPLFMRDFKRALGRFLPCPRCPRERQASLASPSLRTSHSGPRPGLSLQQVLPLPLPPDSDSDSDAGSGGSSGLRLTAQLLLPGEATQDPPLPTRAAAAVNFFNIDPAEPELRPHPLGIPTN
# T3 sequence (P41595 whole entry): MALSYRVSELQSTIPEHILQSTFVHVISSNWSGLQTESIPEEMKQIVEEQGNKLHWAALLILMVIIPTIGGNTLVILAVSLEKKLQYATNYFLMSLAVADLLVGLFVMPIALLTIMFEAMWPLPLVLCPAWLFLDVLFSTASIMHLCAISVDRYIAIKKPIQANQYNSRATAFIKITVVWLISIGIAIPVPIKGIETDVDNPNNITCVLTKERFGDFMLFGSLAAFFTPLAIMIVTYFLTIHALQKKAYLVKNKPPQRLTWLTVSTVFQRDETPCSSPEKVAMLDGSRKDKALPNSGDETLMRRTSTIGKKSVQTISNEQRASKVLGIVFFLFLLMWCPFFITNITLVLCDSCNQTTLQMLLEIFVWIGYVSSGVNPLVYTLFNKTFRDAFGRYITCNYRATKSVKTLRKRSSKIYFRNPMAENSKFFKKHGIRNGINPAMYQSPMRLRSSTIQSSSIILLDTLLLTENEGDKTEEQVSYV
# T10 sequence (P34969 whole entry): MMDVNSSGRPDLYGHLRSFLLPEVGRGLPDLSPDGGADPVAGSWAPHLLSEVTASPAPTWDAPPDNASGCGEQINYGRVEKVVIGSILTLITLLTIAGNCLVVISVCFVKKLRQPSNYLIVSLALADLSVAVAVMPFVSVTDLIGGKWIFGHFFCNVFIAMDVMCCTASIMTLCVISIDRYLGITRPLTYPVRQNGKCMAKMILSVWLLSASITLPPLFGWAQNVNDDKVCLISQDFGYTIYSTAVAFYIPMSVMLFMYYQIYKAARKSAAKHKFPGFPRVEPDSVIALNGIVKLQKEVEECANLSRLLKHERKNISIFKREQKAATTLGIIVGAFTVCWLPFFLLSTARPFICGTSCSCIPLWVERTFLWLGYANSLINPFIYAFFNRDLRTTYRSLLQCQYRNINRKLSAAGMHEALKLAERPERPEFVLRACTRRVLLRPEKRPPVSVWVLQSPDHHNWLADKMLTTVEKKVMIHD
# T9 sequence (P28223 whole entry): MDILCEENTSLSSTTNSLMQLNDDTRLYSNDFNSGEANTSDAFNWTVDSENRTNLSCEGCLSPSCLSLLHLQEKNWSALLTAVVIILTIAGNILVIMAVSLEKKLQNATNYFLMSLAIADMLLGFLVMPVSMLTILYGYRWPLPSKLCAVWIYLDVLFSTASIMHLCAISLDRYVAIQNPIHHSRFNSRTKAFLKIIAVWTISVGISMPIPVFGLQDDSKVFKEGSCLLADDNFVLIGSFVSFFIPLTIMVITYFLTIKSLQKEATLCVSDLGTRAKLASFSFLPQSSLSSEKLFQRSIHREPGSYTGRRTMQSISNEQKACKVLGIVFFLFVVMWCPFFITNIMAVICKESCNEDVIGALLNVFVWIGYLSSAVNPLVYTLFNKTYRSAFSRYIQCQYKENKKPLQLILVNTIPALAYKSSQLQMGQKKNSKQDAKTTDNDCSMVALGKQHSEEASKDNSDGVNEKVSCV
# T11 sequence (P35367 whole entry): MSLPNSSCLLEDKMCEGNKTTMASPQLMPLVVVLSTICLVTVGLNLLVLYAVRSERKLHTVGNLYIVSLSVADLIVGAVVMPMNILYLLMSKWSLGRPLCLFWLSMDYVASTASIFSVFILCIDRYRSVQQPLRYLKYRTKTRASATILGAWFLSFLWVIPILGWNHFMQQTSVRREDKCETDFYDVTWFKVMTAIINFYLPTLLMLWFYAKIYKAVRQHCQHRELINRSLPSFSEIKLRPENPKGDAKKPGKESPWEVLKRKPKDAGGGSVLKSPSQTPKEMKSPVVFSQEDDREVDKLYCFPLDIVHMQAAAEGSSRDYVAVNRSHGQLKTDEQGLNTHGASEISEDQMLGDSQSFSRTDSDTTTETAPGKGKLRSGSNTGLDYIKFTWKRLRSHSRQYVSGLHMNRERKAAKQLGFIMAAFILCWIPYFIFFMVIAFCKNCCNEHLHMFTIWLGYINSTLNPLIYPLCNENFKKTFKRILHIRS
compound,measurement,setting,value
Cc1ccc2c(c1)c1c(n2CCc2ccccn2)CCCN(C)C1 [1.2.2(2-2)],imidazoline I2 receptor % inhibition,[1]; 10 μM ligand,80%
same,5-HT2C % inhibition,[2]; 10 μM ligand,51%
same,inhibition at 1 µM,[2]; ligand concentration 1 μM,94%
same,inhibition at 1 µM,[3],28%
same,5-HT2B % inhibition,[4]; 10 μM ligand,10%
same,inhibition at 1 µM,[5],88%
Cc1ccc2c(c1)c1c(n2CCc2cccnc2)CCCN(C)C1.Cl.Cl [1.2.2(3-2)•2HCl],"α-Adrenoceptor α2A, % inhibition",[6],71%
same,imidazoline I2 receptor % inhibition,[1]; 10 μM ligand,63%
same,"α-Adrenoceptor α1D, % inhibition",[7],60%
same,"α-Adrenoceptor α1A, % inhibition",[8],61%
same,"α-Adrenoceptor α1B, % inhibition",[9],75%
same,inhibition at 1 µM,[3],6%
Cc1ccc2c(c1)c1c(n2CCc2ccccc2)CCCN(C)C1 [1.2.2(1-2)•HCl],5-HT2A % inhibition,[10]; 10 μM ligand,89%
same,5-HT7 % inhibition,[11]; 10 μM ligand,97%
same,5-HT1A % inhibition,[3]; 10 μM ligand,20%
same,5-HT2B % inhibition,[4]; 10 μM ligand,84%
"CN1CCc2c(c3ccccc3n2Cc2ccccc2)C1.Cl [1.9(1)•HCl, 5-benzyl-2-methyl-2,3,4,5-tetrahydro-1H-pyrido[4,3-b]indole hydrochloride]",IC50,[10],30.1 nM
same,Ki,[10],8.6 nM
same,nH 5-HT2A,[10],0.765
same,5-HT2A % inhibition,[10]; 0.1 μM ligand,68%
same,5-HT2A % inhibition,[10]; 10 μM ligand,96%
same,"α-Adrenoceptor α2A, % inhibition",[6],100%
same,imidazoline I2 receptor % inhibition,[1]; 3 μM ligand,75 (3 μM) %
same,"Histamine receptor H1, % inhibition",[12],97%
same,5-HT7 % inhibition,[11]; 0.3 μM ligand,76%
same,5-HT7 % inhibition,[11]; 10 μM ligand,91%
same,"α-Adrenoceptor α1A, % inhibition",[8],70%
same,IC50,[2],33.7 nM
same,Ki,[2],17.7 nM
same,nH 5-HT2C,[2],1.21
same,5-HT2C % inhibition,[2]; 0.1 μM ligand,79%
same,5-HT2C % inhibition,[2]; 10 μM ligand,97%
same,"α-Adrenoceptor α1B, % inhibition",[9],70%
same,nH 5-HT2B,[4],0.836
same,5-HT2B % inhibition,[4]; 0.1 μM ligand,52%
same,5-HT2B % inhibition,[4]; 10 μM ligand,99%
same,IC50,[4]; read-out: IC50 5-HT2B,106 nM
same,Ki,[4]; read-out: Ki 5-HT2B,67.2 nM
same,IC50,[5],330 nM
same,Ki,[5],153 nM
same,nH 5-HT6,[5],1.04
same,5-HT6 % inhibition,[5]; 10 μM ligand,71%
same,inhibition at 1 µM,[5],79%

# From patent publication US20110039825A1, “LIGANDS OF ALPHA-ADRENOCEPTORS, DOPAMINE, HISTAMINE, IMIDAZOLINE AND SEROTONIN RECEPTORS AND THEIR USE” (Alla Chem, LLC, priority 2007, published 2011)
